Key:
PaTrm5a [1] = molecular target: T1, PaTrm5a (Pyrococcus abyssi, UniProt Q9V2G1); assay: X-ray crystal structure, cocrystallisation, […] Å; assay type: binding; conditions: PEG 3350, HEPES pH 7.5, Ca(OAc)2, KCl, 25 °C; SAM site in D3
T1 construct: gene taw22

PaTrm5a [2] = molecular target: T1, PaTrm5a; assay: X-ray crystal structure, cocrystallisation with SAM (MTA as its degradation product), […] Å; assay type: binding; conditions: PEG 3350, HEPES pH 7.5, Ca(OAc)2, KCl, 25 °C; SAM site in D3

T1 sequence (Q9V2G1 whole entry): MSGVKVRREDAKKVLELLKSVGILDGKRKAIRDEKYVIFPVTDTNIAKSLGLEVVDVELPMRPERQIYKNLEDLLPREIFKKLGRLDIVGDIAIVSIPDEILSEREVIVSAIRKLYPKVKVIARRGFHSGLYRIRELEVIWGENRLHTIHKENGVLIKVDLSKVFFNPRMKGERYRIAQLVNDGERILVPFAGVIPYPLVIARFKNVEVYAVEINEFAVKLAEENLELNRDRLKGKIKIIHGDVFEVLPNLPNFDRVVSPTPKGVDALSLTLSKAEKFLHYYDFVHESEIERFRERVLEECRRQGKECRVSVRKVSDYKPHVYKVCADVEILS

SMILES	X-ray crystal structure, cocrystallisation, 2.00 Å (PaTrm5a [1])	X-ray crystal structure, cocrystallisation with SAM (MTA as its degradation prod) (PaTrm5a [2])
Nc1ncnc2c1ncn2[C@@H]1O[C@H](CSCC[C@H](N)C(=O)O)[C@@H](O)[C@H]1O [SAH, S-adenosyl-L-homocysteine]	the adenosine moiety and the methionine group are specifically recognised by hydrogen bonding interactions	–
CSC[C@H]1O[C@@H](n2cnc3c(N)ncnc32)[C@H](O)[C@@H]1O [MTA, 5′-methylthioadenosine]	–	MTA fits well in the ligand-binding pocket, and interacts with the enzyme

From PMC5024318, “Crystal structures of the bifunctional tRNA methyltransferase Trm5a” (Scientific Reports, 2016)
